Data from patent US20150352038A1, “A DOSAGE FORM FOR ADMINISTERING AN ACTIVE PRINCIPLE FOR ACCELERATED SLEEP INDUCTION AND/OR FOR TREATING SLEEP DISORDERS AND/OR FOR TREATING A CENTRAL NERVOUS SYSTEM DISORDER” (priority 2013, published 2015).
≈ marks a conversion by molar mass, not a printed value. Structures can show the parent of a compound that is named as a salt.

Experiments:
[1] = Stability in alcohol solution; type: physicochemical; conditions: degree of alcohol starting from 35°
Protocol: In the studies, the doses normally administered orally, at bedtime, varied over the range 0.3 mg to 5 mg. High doses of Melatonin may exert a negative paradoxical action that propagates to phases that are not phases of responding to Melatonin.

[2] = oral; % of the ingested/administered dose; cited from earlier work
[3] = cited from earlier work
[4] = cited from earlier work; remark: listed apart in the source
[5] = system: plasma proteins; conditions: cited from earlier work; for bonded to plasma proteins: in the blood stream
[6] = Bioavailability after oral administration; type: in vivo
[7] = administered orally, doses of 5 mg or 10 mg; cited from earlier work
[8] = Time to onset of calming / sedative / sleep-inducing effect; type: in vivo; conditions: hydro-alcoholic solution of the invention via the oral mucous membrane

Compound | bioavailability when taken orally [2] | solubility in ethanol, in words ([4]; ethanol) | half-life in the organism ([3]; in vivo) | further results
COc1ccc2[nH]cc(CCNC(C)=O)c2c1 [Melatonin, N-Acetyl-5-Methoxytryptamine] | ~15% | very soluble in ethanol |  | stability in alcohol solution [1]: increases with increasing degree of alcohol; half-life ([3]; in vivo): greater than 50 min
CN1CCN(C(=O)OC2c3nccnc3C(=O)N2c2ccc(Cl)cn2)CC1 (stereo not shown) [Zopiclone] |  |  |  | solubility in water and in ethanol/alcohol, in words [4]: not very soluble in water and alcohol
CN1CCN(C(=O)O[C@H]2c3nccnc3C(=O)N2c2ccc(Cl)cn2)CC1 [Eszopiclone] |  |  | 6 h | bonded to plasma proteins [5]: 60%
CN1CCC(=C2c3ccccc3C=Cc3ccccc32)CC1 [Cyproheptadine] | ~25% |  |  | half-life, compared in words ([3]; compared with Doxylamine): longer than the half-life of Doxylamine
(S)—N-(2-(1,6,7,8-tetrahydro-2H-indeno-(5,4)furan-8-yl)ethyl)propionamide [Ramelteon] | 1.8% | very easily soluble in ethanol |  | bonded to plasma proteins [5]: 82%; fraction of the orally administered dose destroyed / lost [6]: 98.2%
Cc1ccc(-c2nc3ccc(C)cn3c2CC(=O)N(C)C)cc1 [Zolpidem tartrate] |  |  |  | solubility in water and in ethanol/alcohol, in words [4]: less soluble in water and in ethanol than Zolpidem base
Cc1nnc2n1-c1sc(Br)cc1C(c1ccccc1Cl)=NC2 [Brotizolam] | around 50% |  | 4.4 h | 
Cc1ccc(-c2nc3ccc(C)cn3c2CC(=O)N(C)C)cc1 [Zolpidem] | ≤ 70% | quite soluble in ethanol | 2 to 3 h | time until effect is perceptible [7]: at least 15 min; bonded to plasma proteins [5]: 92%; time until calming effect / drowsiness appears, in words [8]: within only a few minutes; solubility in ethanol ([4]; ethanol): 50 mg/mL (≈ 163 mM)
Cc1ncc2n1-c1ccc(Cl)cc1C(c1ccccc1F)=NC2 [Midazolam] | 36% | freely soluble in ethanol |  | bonding to plasma proteins, in words [5]: bonds strongly to plasma proteins; solubility in water ([4]; water): 0.024 mg/mL (≈ 0.0737 mM)
COc1ccc2cccc(CCNC(C)=O)c2c1 [Agomelatine] | less than 5% |  | less than 2 h | fraction of the orally administered dose destroyed / lost [6]: 95%
CN(C)CCOC(C)(c1ccccc1)c1ccccn1 (stereo not shown) [Doxylamine] | 24.7% | easily soluble in ethanol | around 3.5 h | time until calming effect / drowsiness appears, in words [8]: within a few minutes
